Data reported in patent US20230012368A1 (Hoffmann-La Roche Inc., priority 2018, published 2023).
Structures can show the parent of a compound that is named as a salt.

tested on: Acinetobacter baumannii ATCC 17978; assay: Antimicrobial susceptibility testing: 90% growth inhibitory concentration (IC90) determination; assay type: cell-based; settings: 90% growth inhibitory concentration; Acinetobacter baumannii ATCC17978; Iso-Sensitest broth, OD 600 nm over 16h; read-out: ATCC17978 IC90
Method in brief: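 Compounds serially twofold diluted (e.g. 50 to 0.097 μM final) in Iso-Sensitest broth, inoculated at ~5×10^(5) CFU/ml, incubated at 35±2° C. OD600 read every 20 minutes over 16h. IC90 taken as concentration inhibiting 90% of growth during logarithmic phase.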

Compound | IC90 [nM]
COc1ccc(-c2cnc3c(Nc4ccc(C(=O)NCCCCCCCN)c(C)c4)nccn23)c(F)c1F [Example 516, N-(7-aminoheptyl)-4-((3-(2,3-difluoro-4-methoxyphenyl)imidazo[1,2-a]pyrazin-8-yl)amino)-2-methylbenzamide hydrochloride] | 34
Cc1cc(Nc2nccn3c(-c4ccc(Cl)cc4)cnc23)ccc1C(=O)N(C)CCC1CCNCC1 [Example 88, 4-((3-(4-chlorophenyl)imidazo [1,2-a]pyrazin-8-yl)amino)-N,2-dimethyl-N-(2-(piperidin-4-yl)ethyl)benzamide hydrochloride] | 250
CCc1cc(Nc2nccn3c(-c4ccc(OC)c(F)c4F)cnc23)ccc1C(=O)NCCNC(=O)[C@@H](N)CCCNC(=N)NCCCC(=O)O [Example 157, (S)-7-amino-1-(4-((3-(2,3-difluoro-4-methoxyphenyl)imidazo[1,2-a]pyrazin-8-yl)amino)-2-ethylphenyl)-12-imino-1,6-dioxo-2,5,11,13-tetraazaheptadecan-17-oic acid trihydrochloride] | 320

same assay, conditions: Acinetobacter baumannii, ATCC17978, 16 h, 90% growth inhibitory concentration; Acinetobacter baumannii ATCC17978; Iso-Sensitest broth, OD 600 nm over 16h; read-out: ATCC17978 IC90

Compound | IC90 [nM]
CCc1cc(Nc2nccn3c(-c4ccc(OC(F)F)c(F)c4F)cnc23)ccc1C(=O)NCC1(O)CNC1 [Example 307, 4-[[3-[4-(difluoromethoxy)-2,3-difluorophenyl]imidazo[1,2-a]pyrazin-8-yl]amino]-2-ethyl-N-[(3-hydroxyazetidin-3-yl)methyl]benzamide;hydro-chloride] | 620
CCc1cc(Nc2nccn3c(-c4ccc(OC)c(F)c4F)cnc23)ccc1C(=O)NCCNC(=O)[C@@H]1C[C@@H](O)CN1 [Example 370, (2S,4R)-N-[2-[[4-[[3-(2,3-difluoro-4-methoxyphenyl)imidazo[1,2-a]pyrazin-8-yl]amino]-2-ethylbenzoyl]amino]ethyl]-4-hydroxypyrrolidine-2-carboxamide] | 140
CCc1cc(Nc2nccn3c(-c4ccc(OC)c(F)c4F)cnc23)ccc1C(=O)NCCC1CCN(CCC(=O)O)CC1 [Example 301, 3-[4-[2-[[4-[[3-(2,3-difluoro-4-methoxyphenyl)imidazo[1,2-a]pyrazin-8-yl]amino]-2-ethylbenzoyl]amino]ethyl]piperidin-1-yl]propanoic acid] | 270
CCc1cc(Nc2nccn3c(-c4ccc(OC)c(F)c4F)cnc23)ccc1C(=O)NCC(=O)N1CCN[C@H](CO)C1 [Example 464, 4-[[3-(2,3-difluoro-4-methoxy-phenyl)imidazo[1,2-a]pyrazin-8-yl]amino]-2-ethyl-N-[2-[(3S)-3-(hydroxymethyl)piperazin-1-yl]-2-oxo-ethyl]benzamide] | 240
COc1ccc(-c2cnc3c(Nc4ccc(C(=O)N(C)CCO)cc4)nccn23)cc1 [Example 235, N-(2-hydroxyethyl)-4-[[3-(4-methoxyphenyl)imidazo[1,2-a]pyrazin-8-yl]amino]-N-methylbenzamide] | 1000
COc1ccc(-c2cnc3c(Nc4ccc(C(=O)NC[C@@H](O)[C@@H](O)[C@H](O)[C@H](O)CO)c(C)c4)nccn23)cc1F [Example 288, 4-[[3-(3-fluoro-4-methoxyphenyl)imidazo[1,2-a]pyrazin-8-yl]amino]-2-methyl-N-[(2R,3R,4R,5R)-2,3,4,5,6-pentahydroxyhexyl]benzamide] | 3000
CNC(=O)c1ccc(Nc2nccn3c(-c4ccc(OC)c(F)c4)cnc23)cc1Cl [Example 22, 2-chloro-4-((3-(3-fluoro-4-methoxyphenyl)imidazo [1,2-a]pyrazin-8-yl)amino)-N-methylbenzamide] | 130
CCc1cc(Nc2nccn3c(-c4ccc(OC)c(F)c4F)cnc23)ccc1C(=O)NCCN1CCNCC1 [Example 323, 4-[[3-(2,3-difluoro-4-methoxyphenyl)imidazo[1,2-a]pyrazin-8-yl]amino]-2-ethyl-N-(2-piperazin-1-ylethyl)benzamide] | 60
CCc1cc(Nc2nccn3c(-c4ccc(OC)c(F)c4F)cnc23)ccc1C(=O)NC[C@@H](C)NC(=O)[C@@H](N)CCCNC(=N)N [Example 122, N-[(2R)-2-[[(2S)-2-amino-5-guanidino-pentanoyl]amino]propyl]-4-[[3-(2,3-difluoro-4-methoxy-phenyl)imidazo[1,2-a]pyrazin-8-yl]amino]-2-ethyl-benzamide formate] | 310

Second part, the compound after the results:

IC90 [nM] | Compound
890 | COc1ccc(-c2cnc3c(Nc4ccc(C(=O)NCC5CCSCC5)c(Cl)c4)nccn23)c(F)c1F [Example 42, 2-chloro-4-[[3-(2,3-difluoro-4-methoxy-phenyl)imidazo[1,2-a]pyrazin-8-yl]amino]-N-(tetrahydrothiopyran-4-ylmethyl)benzamide]
730 | COc1ccc(-c2cnc3c(Nc4cc(F)c(C(=O)NCCCN)c(F)c4)nccn23)c(F)c1F [Example 435, N-(3-aminopropyl)-4-((3-(2,3-difluoro-4-methoxyphenyl)imidazo[1,2-a]pyrazin-8-yl)amino)-2,6-difluorobenzamide]
25 | N#CCOc1ccc(-c2cnc3c(Nc4ccc(C(=O)NCCCCCCN)c(Cl)c4)nccn23)c(F)c1F [Example 497, N-(6-aminohexyl)-2-chloro-4-((3-(4-(cyanomethoxy)-2,3-difluorophenyl)imidazo[1,2-a]pyrazin-8-yl)amino)benzamide]
640 | CCc1cc(Nc2nccn3c(-c4ccc(Cl)c(F)c4F)cnc23)ccc1C(=O)NCCNC(=O)[C@H](N)CCCNC(=N)N [Example 130, N-[2-[[(2R)-2-amino-5-guanidino-pentanoyl]amino]ethyl]-4-[[3-(4-chloro-2,3-difluoro-phenyl)imidazo[1,2-a]pyrazin-8-yl]amino]-2-ethyl-benzamide formate]
60 | CCc1cc(Nc2nccn3c(-c4ccc(OC)c(F)c4F)cnc23)ccc1C(=O)NCCCNC(=O)[C@@H](N)CNC(=N)N [Example 359, N-[3-[[(2S)-2-amino-3-carbamimidamidopropanoyl]amino]propyl]-4-[[3-(2,3-difluoro-4-methoxyphenyl)imidazo[1,2-a]pyrazin-8-yl]amino]-2-ethylbenzamide]
280 | CCc1cc(Nc2nccn3c(-c4ccc(OC)c(F)c4F)cnc23)ccc1C(=O)NC1(CNC(=O)[C@@H](N)CCCCN)CC1 [Example 484, N-[1-[[[(2S)-2,6-diaminohexanoyl]amino]meth-yl]cyclopropyl]-4-[[3-(2,3-difluoro-4-methoxy-phenyl)imidazo[1,2-a]pyrazin-8-yl]amino]-2-ethyl-benzamide]
380 | CCc1cc(Nc2nccn3c(-c4ccc(OC)c(F)c4F)cnc23)ccc1C(=O)NCCNC(=O)[C@@H](N)CCN [Example 399, N-[2-[[(2S)-2,4-diaminobutanoyl]amino]ethyl]-4-[[3-(2,3-difluoro-4-methoxy-phenyl)imidazo[1,2-a]pyrazin-8-yl]amino]-2-ethyl-benzamide; formic acid]
770 | CCc1cc(Nc2nccn3c(-c4ccc(OC)c(F)c4F)cnc23)ccc1C(=O)NCC(O)CNC(=O)[C@@H](N)CCCCN (mixture of isomers) [Example 412, rac-N-(3-((R)-2,6-diaminohexanamido)-2-hydroxypropyl)-4-((3-(2,3-difluoro-4-methoxyphenyl)imidazo[1,2-a]pyrazin-8-yl)amino)-2-ethylbenzamide dihydrochloride]
